Starred links: 1 amine or outer side, 2 acyl side, 3 side chain; linkers in the order of their positions; H or OH if unused. Positions of bridges follow the written chain, without caps; N, C: chain ends. Residues, ends and D or L forms follow the SMILES beside them. *: point of attachment. C18 diacid = O=C(O)CCCCCCCCCCCCCCCCC(=O)*; γGlu = O=C(O)[C@H](CCC(=O)[*:2])N[*:1]; AEEA = NCCOCCOCC(=O)O
Molecular target: T1, human natriuretic peptide receptor 2 (hNPR2) (Homo sapiens, UniProt P20594)
T1 construct: expressed in transfected cells; host or cells: HEK293 (ATCC CRL-1573), clone 35, co-transfected with pGloSensor-42F
T1 sequence (P20594 23-1047): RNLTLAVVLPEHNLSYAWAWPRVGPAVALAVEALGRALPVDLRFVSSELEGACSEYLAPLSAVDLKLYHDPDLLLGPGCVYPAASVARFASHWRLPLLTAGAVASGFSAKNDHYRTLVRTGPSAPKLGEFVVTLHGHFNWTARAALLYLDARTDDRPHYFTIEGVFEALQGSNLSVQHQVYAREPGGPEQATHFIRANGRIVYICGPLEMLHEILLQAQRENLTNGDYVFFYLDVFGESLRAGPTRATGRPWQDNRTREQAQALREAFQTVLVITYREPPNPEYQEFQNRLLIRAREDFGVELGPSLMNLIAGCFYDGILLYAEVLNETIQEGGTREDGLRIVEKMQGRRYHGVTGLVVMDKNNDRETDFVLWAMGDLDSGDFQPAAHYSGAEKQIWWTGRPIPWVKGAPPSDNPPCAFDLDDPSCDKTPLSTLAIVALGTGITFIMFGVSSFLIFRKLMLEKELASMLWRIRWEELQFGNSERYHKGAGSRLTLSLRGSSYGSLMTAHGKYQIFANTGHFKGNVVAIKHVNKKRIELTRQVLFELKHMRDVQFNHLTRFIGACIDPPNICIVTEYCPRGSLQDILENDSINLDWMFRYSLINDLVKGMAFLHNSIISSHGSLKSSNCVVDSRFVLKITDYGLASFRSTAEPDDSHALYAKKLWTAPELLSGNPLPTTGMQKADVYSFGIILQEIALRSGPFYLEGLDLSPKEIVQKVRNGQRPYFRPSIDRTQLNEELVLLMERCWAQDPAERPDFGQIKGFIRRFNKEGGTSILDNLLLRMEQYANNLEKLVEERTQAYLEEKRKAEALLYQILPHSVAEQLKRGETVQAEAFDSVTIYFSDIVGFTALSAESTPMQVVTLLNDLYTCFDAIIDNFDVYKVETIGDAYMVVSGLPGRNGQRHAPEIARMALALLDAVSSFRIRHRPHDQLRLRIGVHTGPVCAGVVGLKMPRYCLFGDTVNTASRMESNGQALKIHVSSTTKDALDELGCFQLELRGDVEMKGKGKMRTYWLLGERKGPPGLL
Experiment: In vitro hNPR2 activity assay (cGMP GloSensor reporter, HEK293)
Type: cell-based
Details: for hNPR2 0% HSA. [EC50% rel CNP]: potency relative to CNP22 (0065); for EC50: 0% HSA, HEK293-hNPR2/GloSensor cells
Method in brief: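 Potency is the EC50 from a four-parameter logistic fit, also expressed relative to the in-plate CNP22 control (×100), with at least two replicates. Compounds (ten concentrations, […], HSA-free diluent with 1% OVA, 0.01% Tween20) were incubated 30 min at 37 °C on HEK293 cells co-expressing hNPR2 and a GloSensor cGMP luciferase. Luminescence detected with Bright-Glo.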

| Compound | hNPR2 0% HSA. [EC50% rel CNP] | EC50 |
| --- | --- | --- |
| CC[C@H](C)[C@@H]1NC(=O)[C@H](CCCNC(=N)N)NC(=O)[C@H](CC(=O)O)NC(=O)[C@H](CC(C)C)NC(=O)[C@@H]2CCCN2C(=O)[C@H](CC(C)C)NC(=O)CNC(=O)[C@H](Cc2ccccc2)NC(=O)[C@@H](NC(=O)CNC(=O)[C@H](CCC(N)=O)NC(=O)[C@H](CO)NC(=O)[C@H](CC(C)C)NC(=O)CNC(=O)[C@H](CCCCN)NC(=O)[C@H](CCCCN)NC(=O)[C@H](CCC(=O)O)NC(=O)[C@H](C)NC(=O)CNC(=O)[C@H](CCC(=O)O)NC(=O)[C@H](Cc2ccc(O)cc2)NC(=O)COCCOCCNC(=O)COCCOCCNC(=O)CC[C@H](NC(=O)CCCCCCCCCCCCCCCCC(=O)O)C(=O)O)CSSC[C@@H](C(=O)O)NC(=O)CNC(=O)[C@H](CC(C)C)NC(=O)CNC(=O)[C@H](CO)NC(=O)[C@H](CC(C)C)NC(=O)[C@H](CO)NC(=O)CNC1=O [compound 1274] ({C18 diacid-γGlu-AEEA-AEEA}-YEGAEKKGLSQGCFGLPLDRIGSLSGLGC-OH; disulfide 13-29) | 13.2% | – |
| CC[C@H](C)[C@@H]1NC(=O)[C@H](CCCNC(=N)N)NC(=O)[C@H](CC(=O)O)NC(=O)[C@H](CC(C)C)NC(=O)[C@H](CCCCN)NC(=O)[C@H](CC(C)C)NC(=O)CNC(=O)[C@H](Cc2ccccc2)NC(=O)[C@@H](NC(=O)CNC(=O)[C@H](CCC(N)=O)NC(=O)[C@H](CO)NC(=O)[C@H](CC(C)C)NC(=O)CNC(=O)[C@H](CCCCN)NC(=O)[C@H](CCCCN)NC(=O)[C@H](CCC(N)=O)NC(=O)[C@H](C)NC(=O)CNC(=O)[C@H](CCCCN)NC(=O)[C@H](Cc2ccc(O)cc2)NC(=O)[C@H](CCCCN)NC(=O)[C@H](CCCNC(=N)N)NC(=O)[C@H](C)NC(=O)COCCOCCNC(=O)COCCOCCNC(=O)COCCOCCNC(=O)COCCOCCNC(=O)CC[C@H](NC(=O)CC[C@H](NC(=O)CC[C@H](NC(=O)CC[C@H](NC(=O)CC[C@H](NC(=O)CCCCCCCCCCCCCCCCC(=O)O)C(=O)O)C(=O)O)C(=O)O)C(=O)O)C(=O)O)CSSC[C@@H](C(=O)O)NC(=O)CNC(=O)[C@H](CC(C)C)NC(=O)CNC(=O)[C@H](CO)NC(=O)[C@H](CC(C)C)NC(=O)[C@H](CO)NC(=O)CNC1=O [compound 1463] ({C18 diacid-γGlu-γGlu-γGlu-γGlu-γGlu-AEEA-AEEA-AEEA-AEEA}-ARKYKGAQKKGLSQGCFGLKLDRIGSLSGLGC-OH; disulfide 16-32) | 20.0% | 0.3 nM |
| CC[C@H](C)[C@@H]1NC(=O)[C@H](CCCNC(=N)N)NC(=O)[C@H](CC(=O)O)NC(=O)[C@H](CC(C)C)NC(=O)[C@@H]2CCCN2C(=O)[C@H](CC(C)C)NC(=O)CNC(=O)[C@H](Cc2ccccc2)NC(=O)[C@@H](NC(=O)CNC(=O)[C@H](CO)NC(=O)[C@H](CO)NC(=O)[C@H](CC(C)C)NC(=O)CNC(=O)[C@H](CCCCN)NC(=O)[C@H](CCC(=O)O)NC(=O)[C@H](CCC(N)=O)NC(=O)[C@H](C)NC(=O)CNC(=O)[C@H](CCC(=O)O)NC(=O)COCCOCCNC(=O)COCCOCCNC(=O)CC[C@H](NC(=O)CCCCCCCCCCCCCCCCC(=O)O)C(=O)O)CSSC[C@@H](C(=O)O)NC(=O)CNC(=O)[C@H](CC(C)C)NC(=O)CNC(=O)[C@H](CO)NC(=O)[C@H](CC(C)C)NC(=O)[C@H](CO)NC(=O)CNC1=O [compound 1287] ({C18 diacid-γGlu-AEEA-AEEA}-EGAQEKGLSSGCFGLPLDRIGSLSGLGC-OH; disulfide 12-28) | 2.9% | – |
| {C18 diacid-γGlu-AEEA-AEEA}-GQAPGQAPGQAPGQAPGQAPGLSKGCFGLKLDRIGSMSGLGC-OH (disulfide 26-42) [compound 0230] | 0.4% | – |
| CC[C@H](C)[C@@H]1NC(=O)[C@H](CCCNC(=N)N)NC(=O)[C@H](CC(=O)O)NC(=O)[C@H](CC(C)C)NC(=O)[C@@H]2CCCN2C(=O)[C@H](CC(C)C)NC(=O)CNC(=O)[C@H](Cc2ccccc2)NC(=O)[C@@H](NC(=O)CNC(=O)[C@H](CCC(N)=O)NC(=O)[C@H](CO)NC(=O)[C@H](CC(C)C)NC(=O)CNC(=O)[C@H](CCCCN)NC(=O)[C@H](CCCCN)NC(=O)[C@H](CCC(N)=O)NC(=O)[C@H](C)NC(=O)CNC(=O)[C@H](CCCCN)NC(=O)[C@H](Cc2ccc(O)cc2)NC(=O)[C@H](CCCCN)NC(=O)[C@H](CCCNC(=N)N)NC(=O)[C@H](C)NC(=O)COCCOCCNC(=O)COCCOCCNC(=O)COCCOCCNC(=O)COCCOCCNC(=O)CC[C@H](NC(=O)CC[C@H](NC(=O)CC[C@H](NC(=O)CC[C@H](NC(=O)CC[C@H](NC(=O)CCCCCCCCCCCCCCCCC(=O)O)C(=O)O)C(=O)O)C(=O)O)C(=O)O)C(=O)O)CSSC[C@@H](C(=O)O)NC(=O)CNC(=O)[C@H](CC(C)C)NC(=O)CNC(=O)[C@H](CO)NC(=O)[C@H](CCSC)NC(=O)[C@H](CO)NC(=O)CNC1=O [compound 1465] ({C18 diacid-γGlu-γGlu-γGlu-γGlu-γGlu-AEEA-AEEA-AEEA-AEEA}-ARKYKGAQKKGLSQGCFGLPLDRIGSMSGLGC-OH; disulfide 16-32) | 24.0% | – |
| CC[C@H](C)[C@@H]1NC(=O)[C@H](CCCNC(=N)N)NC(=O)[C@H](CC(=O)O)NC(=O)[C@H](CC(C)C)NC(=O)[C@@H]2CCCN2C(=O)[C@H](CC(C)C)NC(=O)CNC(=O)[C@H](Cc2ccccc2)NC(=O)[C@@H](NC(=O)CNC(=O)[C@H](CCCCN)NC(=O)[C@H](CO)NC(=O)[C@H](CC(C)C)NC(=O)CNC(=O)[C@H](CCCCN)NC(=O)[C@H](CCCCN)NC(=O)[C@H](CCC(N)=O)NC(=O)[C@H](C)NC(=O)CNC(=O)[C@H](CCC(=O)O)NC(=O)[C@H](Cc2ccc(O)cc2)NC(=O)[C@H](CCCCN)NC(=O)[C@H](CCCNC(=N)N)NC(=O)[C@H](C)NC(=O)[C@H](CCC(N)=O)NC(=O)[C@@H]2CCCN2C(=O)[C@H](Cc2c[nH]cn2)NC(=O)[C@H](CCC(=O)O)NC(=O)[C@H](CCC(N)=O)NC(=O)CC[C@H](NC(=O)CC[C@H](NC(=O)CC[C@H](NC(=O)CC[C@H](NC(=O)CCCCCCCCCCCCCCCCC(=O)O)C(=O)O)C(=O)O)C(=O)O)C(=O)O)CSSC[C@@H](C(=O)O)NC(=O)CNC(=O)[C@H](CC(C)C)NC(=O)CNC(=O)[C@H](CO)NC(=O)[C@H](CC(C)C)NC(=O)[C@H](CO)NC(=O)CNC1=O [compound 1448] ({C18 diacid-γGlu-γGlu-γGlu-γGlu}-QEHPQARKYEGAQKKGLSKGCFGLPLDRIGSLSGLGC-OH; disulfide 21-37) | 33.3% | – |
| CC[C@H](C)[C@@H]1NC(=O)[C@H](CCCNC(=N)N)NC(=O)[C@H](CC(=O)O)NC(=O)[C@H](CC(C)C)NC(=O)[C@H](CCCCN)NC(=O)[C@H](CC(C)C)NC(=O)CNC(=O)[C@H](Cc2ccccc2)NC(=O)[C@@H](NC(=O)CNC(=O)[C@H](CCCCN)NC(=O)[C@H](CO)NC(=O)[C@H](CC(C)C)NC(=O)CNC(=O)[C@H](CCCCN)NC(=O)[C@H](CCCCN)NC(=O)[C@H](CCC(N)=O)NC(=O)[C@H](C)NC(=O)CNC(=O)[C@H](CCC(=O)O)NC(=O)[C@H](Cc2ccc(O)cc2)NC(=O)COCCOCCNC(=O)COCCOCCNC(=O)CC[C@H](NC(=O)CCCCCCCCCCCCCCCCC(=O)O)C(=O)O)CSSC[C@@H](C(=O)O)NC(=O)CNC(=O)[C@H](CC(C)C)NC(=O)CNC(=O)[C@H](CO)NC(=O)[C@H](CC(C)C)NC(=O)[C@H](CO)NC(=O)CNC1=O [compound 1221] | 35.9% | 1.17 nM |
| CC[C@H](C)[C@@H]1NC(=O)[C@H](CCCNC(=N)N)NC(=O)[C@H](CC(=O)O)NC(=O)[C@H](CC(C)C)NC(=O)[C@@H]2CCCN2C(=O)[C@H](CC(C)C)NC(=O)CNC(=O)[C@H](Cc2ccccc2)NC(=O)[C@@H](NC(=O)CNC(=O)[C@H](CCC(N)=O)NC(=O)[C@H](CO)NC(=O)[C@H](CC(C)C)NC(=O)CNC(=O)[C@H](CCCCN)NC(=O)[C@H](CCCCN)NC(=O)[C@H](CCC(N)=O)NC(=O)[C@H](C)NC(=O)CNC(=O)[C@@H]2CCCN2C(=O)[C@H](C)NC(=O)[C@H](CCC(N)=O)NC(=O)CNC(=O)[C@@H]2CCCN2C(=O)[C@H](C)NC(=O)[C@H](CCC(N)=O)NC(=O)CNC(=O)[C@@H]2CCCN2C(=O)[C@H](C)NC(=O)[C@H](CCC(N)=O)NC(=O)CNC(=O)CC[C@H](NC(=O)CCCCCCCCCCCCCCCCC(=O)O)C(=O)O)CSSC[C@@H](C(=O)O)NC(=O)CNC(=O)[C@H](CC(C)C)NC(=O)CNC(=O)[C@H](CO)NC(=O)[C@H](CC(C)C)NC(=O)[C@H](CO)NC(=O)CNC1=O [compound 1488] ({C18 diacid-γGlu}-GQAPGQAPGQAPGAQKKGLSQGCFGLPLDRIGSLSGLGC-OH; disulfide 23-39) | 29.3% | – |

— US20240209028A1, “CNP COMPOUNDS” (priority 2022, published 2024)
